In patent publication US20140057915A1, “KINASE INHIBITORS” (TOPIVERT PHARMA LIMITED, priority 2012, published 2014):

Key:
d-U937 cells = experiment: Cell viability: MTT assay; format: cell-based, human; conditions: 1 μg/mL
In short: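 Differentiated U937 cells exposed to compound at 1 or 10 μg/mL, either 4 h in 5% FCS or 24 h in 10% FCS RPMI1640. MTT then added for 1 h, formazan dissolved in DMSO and read at 550 nm. Viability loss given as % versus 0.5% DMSO vehicle; apparent gains appear negative.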

GSK3α = GSK3α (Homo sapiens, UniProt P49840); experiment: Enzyme binding assay (Kinomescan); conditions: read-out: % Inhibition of kinase binding at 500 nM, GSK3α
Sequence of GSK3α (P49840 whole entry): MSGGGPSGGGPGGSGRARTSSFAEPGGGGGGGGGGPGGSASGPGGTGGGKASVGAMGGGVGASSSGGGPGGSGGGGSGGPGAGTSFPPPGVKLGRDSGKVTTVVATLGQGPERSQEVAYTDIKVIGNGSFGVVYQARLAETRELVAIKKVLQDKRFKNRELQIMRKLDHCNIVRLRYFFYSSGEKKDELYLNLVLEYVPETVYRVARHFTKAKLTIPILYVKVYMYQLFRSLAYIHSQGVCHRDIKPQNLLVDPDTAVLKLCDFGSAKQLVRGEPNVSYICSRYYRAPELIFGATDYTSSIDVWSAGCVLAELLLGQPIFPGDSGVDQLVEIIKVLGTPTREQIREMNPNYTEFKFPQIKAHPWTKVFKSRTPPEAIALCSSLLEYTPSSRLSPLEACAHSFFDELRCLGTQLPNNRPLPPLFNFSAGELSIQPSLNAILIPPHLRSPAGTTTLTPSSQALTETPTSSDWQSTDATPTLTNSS
Experimental: (§1) These assays were conducted by DiscoverX (formerly Ambit; San Diego, Calif.). The percentage inhibition produced by incubation with a test compound is calculated relative to the non-inhibited control.

[1] = tested on: TNFα release, d-U937 cells; experiment: LPS-induced TNFα release in d-U937 cells; format: cell-based; conditions: Homo sapiens, dU937; relative to 10 μg/mL BIRB796; Table 4c1; read-out: LPS Induced Release of Cytokine in d-U937 Cells, TNFα REC50
In short: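 U937 cells differentiated with PMA (100 ng/mL, 48–72 hr), pre-treated with compound for 2 hr, then stimulated with E. coli LPS (0.1 μg/mL) for 4 hr. Supernatant cytokine measured by sandwich ELISA; inhibition versus vehicle control, REC50 from concentration-response curve.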

[2] = tested on: ICAM-1 expression, BEAS2B cells; experiment: Poly I:C-induced ICAM-1 expression in BEAS2B cells; format: cell-based; conditions: Homo sapiens, BEAS-2B; read-out: Poly IC induced ICAM1 in BEAS2B, IC50
In short: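 BEAS2B human bronchial epithelial cells pre-incubated 2 h with compound, then transfected with poly I:C (1 μg/mL) plus Oligofectamine. After 18 h, cell-surface ICAM-1 read by cell-based ELISA (A450–655), normalised to Crystal Violet cell number (A595); inhibition calculated against vehicle control at each concentration.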

Syk = Syk (Homo sapiens, UniProt P43405); experiment: Enzyme binding assay (Kinomescan); conditions: read-out: % Inhibition of kinase binding at 500 nM, Syk
Experimental: (§2) Enzyme Binding Assays (Kinomescan)
as §1

B-Raf = B-Raf (Homo sapiens, UniProt P15056); experiment: Enzyme binding assay (Kinomescan); conditions: read-out: % Inhibition of kinase binding at 500 nM, B-Raf
Sequence of B-Raf (P15056 whole entry): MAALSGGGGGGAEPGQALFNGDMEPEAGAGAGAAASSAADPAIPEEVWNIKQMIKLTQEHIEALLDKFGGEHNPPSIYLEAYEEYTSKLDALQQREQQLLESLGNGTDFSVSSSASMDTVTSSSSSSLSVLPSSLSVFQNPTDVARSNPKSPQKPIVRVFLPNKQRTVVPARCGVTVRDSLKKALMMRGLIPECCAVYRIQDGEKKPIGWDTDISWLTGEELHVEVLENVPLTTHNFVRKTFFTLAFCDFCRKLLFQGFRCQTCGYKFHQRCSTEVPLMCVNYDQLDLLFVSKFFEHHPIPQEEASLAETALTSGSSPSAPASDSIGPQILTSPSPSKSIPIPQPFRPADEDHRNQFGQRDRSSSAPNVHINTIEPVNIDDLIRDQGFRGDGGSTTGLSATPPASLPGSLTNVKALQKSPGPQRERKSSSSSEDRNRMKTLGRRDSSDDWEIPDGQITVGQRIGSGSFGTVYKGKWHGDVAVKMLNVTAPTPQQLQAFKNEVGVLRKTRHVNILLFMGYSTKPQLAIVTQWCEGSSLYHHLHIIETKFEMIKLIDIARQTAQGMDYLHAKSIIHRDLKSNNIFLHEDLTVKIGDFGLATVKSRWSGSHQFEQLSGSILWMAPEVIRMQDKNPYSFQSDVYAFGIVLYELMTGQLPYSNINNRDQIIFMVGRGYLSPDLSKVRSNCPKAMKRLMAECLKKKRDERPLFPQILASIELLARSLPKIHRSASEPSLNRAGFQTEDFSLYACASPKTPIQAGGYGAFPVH
Experimental: as §2
(§3) The kinase enzyme binding activities of compounds disclosed herein were determined using a proprietary assay which measures active site-directed competition binding to an immobilized ligand (Fabian, M. A. et al., Nature Biotechnol., 2005, 23:329-336). These assays were conducted by DiscoverX (formerly Ambit; San Diego, Calif.). The percentage inhibition produced by incubation with a test compound is calculated relative to the non-inhibited control.

p38 MAPKα = p38 MAPKα (Homo sapiens, UniProt Q16539); experiment: Enzyme binding assay (Kinomescan); conditions: read-out: % Inhibition of kinase binding at 500 nM, p38 MAPKα
Sequence of p38 MAPKα (Q16539 whole entry): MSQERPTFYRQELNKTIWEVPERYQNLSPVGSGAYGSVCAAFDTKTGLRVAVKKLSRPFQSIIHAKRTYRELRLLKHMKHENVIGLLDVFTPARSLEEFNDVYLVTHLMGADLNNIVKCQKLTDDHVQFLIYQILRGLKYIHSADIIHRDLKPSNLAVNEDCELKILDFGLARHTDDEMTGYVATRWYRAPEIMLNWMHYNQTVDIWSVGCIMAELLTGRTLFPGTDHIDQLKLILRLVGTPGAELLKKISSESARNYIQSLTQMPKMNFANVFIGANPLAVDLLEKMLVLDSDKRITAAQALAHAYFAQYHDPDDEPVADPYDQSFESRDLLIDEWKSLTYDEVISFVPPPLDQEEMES
Experimental: as §2, §3

inhibition at 0.5 µM (GSK3α): 84% | EC50 [1]: 0.13 nM | inhibition at 0.5 µM (Syk): 95% | inhibition at 0.5 µM (B-Raf): 70% | inhibition at 0.5 µM (p38 MAPKα): 100%
SMILES: COCC(=O)Nc1cc(Oc2ccc(NC(=O)Nc3cc(C(C)(C)C)nn3-c3ccc(C)cc3)c3ccccc23)ccn1 [Reference Compound, N-(4-(4-(3-(3-tert-butyl-1-p-tolyl-1H-pyrazol-5-yl)ureido)naphthalen-1-yloxy)pyridin-2-yl)-2-methoxyacetamide, reference compound]
Cell viability at time point in d-U937 cells, 4 h (d-U937 cells; 4 h): −ve (−ve and +ve indicate that the value is below and above respectively, the no significant effect threshold, defined as 30% inhibition at 1 μg/mL at the time point indicated) | Cell viability at time point in d-U937 cells, 24 h (d-U937 cells; 24 h): +ve (−ve and +ve indicate that the value is below and above respectively, the no significant effect threshold, defined as 30% inhibition at 1 μg/mL at the time point indicated) | IC50 [2]: 2.1 nM
